The results in this text go back to US20110217265A1, “Screening for Inhibitors of HCV Amphipathic Helix (AH) Function” (priority 2008, published 2011).

Entries after “also recorded” stand apart in the source; their conditions may differ.

The subject of this experiment is subgenomic genotype 1b replicon RNA (Bart79ILuc). The experiment is described as follows: Transient genotype 1b subgenomic replicon (Bart79I-luc) luciferase replication assay in Huh7.5 cells. It counts as cell-based, Hepatitis C Virus genotype 1b. To be noted: luciferase at 72 hr of treatment. From the text:
Plasmids. Bart79I, a high-efficiency subgenomic replicon of HCV (28), harbors the neomycin resistance gene (neo) and the HCV nonstructural proteins. The Bart-Luciferase plasmid, Bart79I-luc, was cloned from the Bart791 parent (29) and the pGL3-Basic parent (Promega). In brief, a NotI site was introduced after the 15th amino acid of Core in Bart791 using PCR mutagenesis. The plasmid pcDNA3.1-NS4B, which encodes the Con1 NS4B sequence and was used to study the protein stability of the wild type and mutant NS4Bs, was described previously. […]
Transient Replication Assays. […] Firefly luciferase activities were measured at 8, 48, 96, and 144 hr post electroporation by using a firefly luciferase kit from Promega (Madison, Wis.).
Antiviral Assays of Compounds. […] Plates were then scanned and fluorescence was detected by using a FLEXstation II 384 (Molecular Devices). […] Viral RNA replication was determined using Renilla (FL-J6/JFH-5′C19Rluc2AUbi) or firefly (Bart791-luc) luciferase assays, according to the manufacturer's (Promega) directions. The same samples subjected to the viability assay described below were analyzed in this assay. […] Luminescence was measured over 10 seconds with a 2-second delay using a Berthold LB 96 V luminometer. […]
Background: In antiviral work, replicon cells carry a viral genome segment that copies itself.

For `CC(C)CN(C)c1nc(N)c(C(=O)NC(=N)N)nc1Cl` [C4, 3-amino-N-carbamimidoyl-6-chloro-5-(isobutyl(methyl)amino)pyrazine-2-carboxamide], the “Inhibition of HCV genotype 1b genome replication” value was “inhibits HCV replication; also recorded: dose-dependent inhibition”.
